According to ChEMBL document CHEMBL5385845, “Novel coumarin aminophosphonates as potential multitargeting antibacterial agents against Staphylococcus aureus” (Eur J Med Chem, 2023):
Values after ≈ are worked out from the molar mass of the structure shown. Active and inactive are the calls of the source. No cut-off for these calls is given here.

Assays:
Staphylococcus aureus [1] = assay: Antibacterial activity against methicillin resistant Staphylococcus aureus N315 assessed as inhibition of bacterial growth; format: functional
Enterococcus faecalis = assay: Antibacterial activity against Enterococcus faecalis assessed as inhibition of bacterial growth; format: functional
Staphylococcus aureus [2] = assay: Antibacterial activity against Staphylococcus aureus assessed as inhibition of bacterial growth; format: functional
Staphylococcus aureus [3] = assay: Antibacterial activity against Staphylococcus aureus ATCC 25923 assessed as inhibition of bacterial growth; format: functional
Staphylococcus aureus [4] = assay: Antibacterial activity against Staphylococcus aureus ATCC 29213 assessed as inhibition of bacterial growth; format: functional
Klebsiella pneumoniae = assay: Antibacterial activity against Klebsiella pneumoniae assessed as inhibition of bacterial growth; format: functional
Escherichia coli [5] = assay: Antibacterial activity against Escherichia coli assessed as inhibition of bacterial growth; format: functional
Pseudomonas aeruginosa [6] = assay: Antibacterial activity against Pseudomonas aeruginosa assessed as inhibition of bacterial growth; format: functional
Acinetobacter baumannii = assay: Antibacterial activity against Acinetobacter baumannii assessed as inhibition of bacterial growth; format: functional
Pseudomonas aeruginosa [7] = assay: Antibacterial activity against Pseudomonas aeruginosa ATCC 27853 assessed as inhibition of bacterial growth; format: functional
Escherichia coli [8] = assay: Antibacterial activity against Escherichia coli ATCC 25922 assessed as inhibition of bacterial growth; format: functional
Staphylococcus aureus [9] = assay: Synergistic antibacterial activity against Staphylococcus aureus assessed as inhibition of bacterial growth in presence of norfloxacin; format: functional
Escherichia coli [10] = assay: Synergistic antibacterial activity against Escherichia coli ATCC 25922 assessed as inhibition of bacterial growth in presence of norfloxacin; format: functional
Staphylococcus aureus [11] = assay: Synergistic antibacterial activity against Staphylococcus aureus assessed as fractional inhibitory concentration index in presence of norfloxacin; format: functional
[12] = Hemolytic activity in RBC (unknown origin) assessed as hemolysis at 256 ug/ml incubated for 6 hrs relative to control; format: toxicity, cell-based, Erythrocyte; conditions: red blood cells (erythrocytes), at 256 µg/mL, read-out: Activity
Staphylococcus aureus [13] = assay: Antibacterial activity against Staphylococcus aureus assessed as reduction in bacterial biofilm formation; format: functional, organism-based
Staphylococcus aureus [14] = assay: Antibacterial activity against Staphylococcus aureus assessed as reduction in bacterial biofilm formation at 16 x MIC relative to control; format: functional; parameters: scale not given: the % may be the effect or the level left
Staphylococcus aureus [15] = assay: Induction of drug resistance in Staphylococcus aureus assessed as increase in MIC measured for 16 passages; format: functional
Cell membrane [16] = assay: Induction of cell membrane depolarization in Staphylococcus aureus assessed as increase in fluorescence intensity by DiSC3(5) dye-based fluorescence assay
Cell membrane [17] = assay: Induction of cytoplasmic membrane depolarization in Staphylococcus aureus assessed as increase in fluorescence intensity measured at 10 mins by DiSC3(5) dye-based fluorescence assay; format: subcellular
Cell membrane [18] = assay: Induction of cell membrane permeabilization in Staphylococcus aureus by propidium iodide dye-based fluorescence assay
Cell membrane [19] = assay: Induction of cell membrane permeabilization in Staphylococcus aureus by calcein-AM dye-based fluorescence assay; format: subcellular
Cell membrane [20] = assay: Disruption of cell membrane integrity in Staphylococcus aureus assessed as cell membrane damage by scanning electron microscopic analysis; format: subcellular
Cell membrane [21] = assay: Disruption of cell membrane integrity in Staphylococcus aureus assessed as increase in protein leakage
Staphylococcus aureus [22] = assay: Antibacterial activity against Staphylococcus aureus assessed as reduction in cellular metabolic activity by resazurin staining based assay; format: functional, organism-based
Staphylococcus aureus [23] = assay: Antibacterial activity against Staphylococcus aureus assessed as fold increase in intracellular ROS production at 8 times MIC by DCFH-DA dye based fluorometric assay relative to control; format: functional
Staphylococcus aureus [24] = assay: Antibacterial activity against Staphylococcus aureus assessed as increase in RNS production by griess reagent-based analysis; format: functional, organism-based
Staphylococcus aureus [25] = assay: Antibacterial activity against Staphylococcus aureus assessed as fold increase in RNS production at 8 times MIC by griess reagent-based analysis; format: functional
Staphylococcus aureus [26] = assay: Induction of oxidative stress in Staphylococcus aureus assessed as decrease in GSH activity at 8 times MIC relative to control; format: functional; parameters: scale not given: the % may be the effect or the level left
Staphylococcus aureus [27] = assay: Antibacterial activity against Staphylococcus aureus assessed as fold increase in malondialdehyde level at 1 to 5 times MIC; format: functional
Staphylococcus aureus [28] = assay: Antibacterial activity against Staphylococcus aureus assessed as effect on lipid peroxidation production at 1 to 5 times MIC incubated for 5 to 20 mins; format: functional, organism-based; conditions: time 5-20 min
Calf thymus DNA [29] = assay: Binding affinity to calf thymus DNA assessed as intercalation by measuring hypochromic shift by UV-Vis spectroscopic analysis; format: nucleic-acid assay; conditions: Bos taurus
Calf thymus DNA [30] = assay: Binding affinity to calf thymus DNA by acridine orange staining based competitive binding assay; format: nucleic-acid assay; conditions: Bos taurus
Calf thymus DNA [31] = assay: Binding affinity to calf thymus DNA by DAPI staining based competitive binding assay; format: nucleic-acid assay; conditions: Bos taurus
Staphylococcus aureus [32] = assay: Antibacterial activity against Staphylococcus aureus assessed as inhibition of bacterial growth at 1 to 4 times MIC incubated for 4 hrs; format: functional, organism-based
Staphylococcus aureus [33] = assay: Antibacterial activity against Staphylococcus aureus assessed as inhibition of bacterial growth at 0.5 times MIC incubated for 4 hrs; format: functional, organism-based
Escherichia coli [34] = assay: Synergistic antibacterial activity against Escherichia coli ATCC 25922 assessed as fractional inhibitory concentration index in presence of norfloxacin; format: functional

CCOP(=O)(OCC)C(Nc1ccc2c(C)cc(=O)oc2c1)c1cccc(O)c1 (configuration not stated)
MIC (Staphylococcus aureus [1]): 32 µg/mL (≈ 76.7 µM) | MIC (Enterococcus faecalis): 16 µg/mL (≈ 38.3 µM) | MIC (Staphylococcus aureus [2]): 0.5 µg/mL (≈ 1.2 µM) | MIC (Staphylococcus aureus [3]): 8 µg/mL (≈ 19.2 µM) | MIC (Staphylococcus aureus [4]): 16 µg/mL (≈ 38.3 µM) | MIC (Klebsiella pneumoniae): 64 µg/mL (≈ 153 µM) | MIC (Escherichia coli [5]): 64 µg/mL (≈ 153 µM) | MIC (Pseudomonas aeruginosa [6]): 16 µg/mL (≈ 38.3 µM) | MIC (Acinetobacter baumannii): 16 µg/mL (≈ 38.3 µM) | MIC (Pseudomonas aeruginosa [7]): 64 µg/mL (≈ 153 µM) | MIC (Escherichia coli [8]): 4 µg/mL (≈ 9.58 µM) | MIC (Staphylococcus aureus [9]): 0.063 µg/mL | MIC (Escherichia coli [10]): 1 µg/mL | fractional inhibitory concentration index (FICI) (Staphylococcus aureus [11]): 0.25 | hemolysis at 6 h, 256 ug/ml [12]: < 4% | Activity (Staphylococcus aureus [13]): Dose-Dependent Effect | Activity (Staphylococcus aureus [14]): 30% | Activity (Staphylococcus aureus [15]): inactive | Activity (Cell membrane [16]): Dose-Dependent Effect | Activity (Cell membrane [17]): Active | Activity (Cell membrane [18]): Dose-Dependent Effect | Activity (Cell membrane [19]): Dose-Dependent Effect | Activity (Cell membrane [20]): Active | Activity (Cell membrane [21]): Dose-Dependent Effect | Activity (Staphylococcus aureus [22]): Dose-Dependent Effect | fold change (FC) (Staphylococcus aureus [23]): 3.7 | Activity (Staphylococcus aureus [24]): Dose-Dependent Effect | fold change (FC) (Staphylococcus aureus [25]): 2.2 | Activity (Staphylococcus aureus [26]): 16% | fold change (FC) (Staphylococcus aureus [27]): 2 | Activity (Staphylococcus aureus [28]): inactive | Activity (Calf thymus DNA [29]): Dose-Dependent Effect | Activity (Calf thymus DNA [30]): Active | Activity (Calf thymus DNA [31]): Active | Activity (Staphylococcus aureus [32]): Active | Activity (Staphylococcus aureus [33]): Active | fractional inhibitory concentration index (FICI) (Escherichia coli [34]): 0.75
